In one data set the test system is Glioblastoma (LN-18). The data set can be described thus: cytotoxicity in Brain Tumor Cell lines by MTT assay. The following applies: 0.05 μM-50 μM, 72 h. It counts as cell-based, Human. The procedure:
(§1) The SEQ ID NO. […] Untreated cells were used as control. […] Cells were incubated for 3 h at 37° C.
For orientation: Formazan colour is commonly taken as a measure of viable cells.

In the next data set the test system is Neuroblastoma (SH-SY5Y). The data set is described as above. In kind it is cell-based, Human. The note with it: 0.05 μM-50 μM, 72 h. The procedure: as §1
The next data set deals with Glioma (C6). The data set is described as above. In kind it is cell-based, Rat. The following applies: 0.05 μM-50 μM, 72 h. Here is the method:
as §1

For another data set, the system named is Contactin-1. As to the kind of experiment: biomarker levels in IOMM-Lee by multiplex analysis. It counts as cell-based, Human. From the text: (§2) Effect of SEQ ID No 2 on the expression of following 7 biomarkers were estimated in Human Meningioma cell line (IOMM-Lee) using multiplex analysis: TNF-alpha, VEGF, VEGFR2, HGF, HGFR/c-MET, PDGF-BB, and Contactin-1. Levels of another marker, Notch-1 were also estimated by ELISA in the same cell line. These 8 biomarkers play very crucial role in the pathogenesis and progression of Brain Tumor. […] Supernatants were collected and the levels of these 8 markers were investigated.

A further data set concerns HGFR/c-MET. As to the kind of experiment: biomarker levels in IOMM-Lee by multiplex analysis. It counts as cell-based, Human.
Text: as §2

The next data set deals with HGF. As to the kind of experiment: biomarker levels in IOMM-Lee by multiplex analysis. In kind it is cell-based, Human.
Text: as §2

Another data set deals with PDGF-BB. The data set can be described thus: biomarker levels in IOMM-Lee by multiplex analysis. It counts as cell-based, Human.
Text: as §2

The next data set concerns TNF-α. The data set can be described thus: biomarker levels in IOMM-Lee by multiplex analysis. In kind it is cell-based, Human.
Text: as §2

Another data set concerns VEGFR2. As to the kind of experiment: biomarker levels in IOMM-Lee by multiplex analysis. It counts as cell-based, Human.
Text: as §2

Another data set deals with VEGF. As to the kind of experiment: biomarker levels in IOMM-Lee by multiplex analysis. It counts as cell-based, Human. The note with it: 0.1 μM.
Text: as §2

Another data set has as its system Notch-1. The data set can be described thus: biomarker levels in IOMM-Lee by ELISA. In kind it is cell-based, Human. The following applies: 0.1 μM.
Text: as §2
For orientation: An ELISA detects its analyte on a solid surface through an enzyme-linked reagent.

For a further data set, the system named is Meningioma (IOMM-Lee). The data set can be described thus: cytotoxicity in Brain Tumor Cell lines by MTT assay. The following applies: 0.05 μM-50 μM, 72 h.
For a further data set, the system named is Astrocytoma (U87MG). Described as above. The note with it: 0.05 μM-50 μM, 72 h.

Turning to `CO[C@H]1C[C@@H]2CC[C@@H](C)[C@@](O)(O2)C(=O)C(=O)N2CCCC[C@H]2C(=O)O[C@H]([C@H](C)C[C@@H]2CC[C@@H](OCCO)[C@H](OC)C2)CC(=O)[C@H](C)/C=C(\C)[C@@H](O)[C@@H](OC)C(=O)[C@H](C)C[C@H](C)/C=C/C=C/C=C/1C` [Everolimus], the “% of cytotoxicity” value with Glioblastoma (LN-18) is on record as 3.5%-90.7%; with Neuroblastoma (SH-SY5Y), 29.7%-70.1%; in the data set on Glioma (C6), 50.3%-97.2%; in the data set on Meningioma (IOMM-Lee) it was 44.7%-97.4%; in the data set with Astrocytoma (U87MG), 43.6%-88.0%. For the same compound, the entries for the “Percentage inhibition on levels of Contactin-1” value in the data set on Contactin-1 (0.1 μM) and with Contactin-1 (5 μM) were 14.9% and 31.3%, respectively. The “Percentage inhibition on levels of HGFR/c-MET” value worked out at 21.2% with HGFR/c-MET (0.1 μM) and 41% in the data set on HGFR/c-MET (5 μM). Further, the “Percentage inhibition on levels of HGF” value in the data set with HGF (0.1 μM) was 59.2%; with HGF (5 μM), 80.8%. Also, the “Percentage inhibition on levels of PDGF-BB” value was determined as 1.5% with PDGF-BB (0.1 μM) and 67.9% with PDGF-BB (5 μM). The results for the “Percentage inhibition on levels of TNF-α” value in the data set on TNF-α (0.1 μM) and in the data set with TNF-α (5 μM) were 42.3% and 100%, respectively. Further, the “Percentage inhibition on levels of VEGFR2” value is reported as 27.6% in the data set on VEGFR2 (0.1 μM) and 100% in the data set with VEGFR2 (5 μM). Further, the “Percentage inhibition on levels of VEGF” value with VEGF worked out at 45.8%. Moreover, the “Percentage inhibition on levels of Notch-1” value in the data set on Notch-1 is given as 75.9%.

For the origin of these results see patent publication US20230348564A1, “ANTI-CANCER PROTEINS” (UNICHEM LABORATORIES LTD, priority 2020, published 2023).
